The values that follow come from ChEMBL document CHEMBL1157897, “A rapid oxime linker-based library approach to identification of bivalent inhibitors of the Yersinia pestis protein-tyrosine phosphatase, YopH” (Bioorg Med Chem Lett, 2010).

SMILES strings stand for the structures.

The target of this test is Secreted effector protein (Yersinia pestis, UniProt O68720). As to the kind of experiment: Inhibition of Yersinia pestis YopH after 15 mins by pNPP hydrolysis assay.
Sequence of Secreted effector protein (O68720 whole entry): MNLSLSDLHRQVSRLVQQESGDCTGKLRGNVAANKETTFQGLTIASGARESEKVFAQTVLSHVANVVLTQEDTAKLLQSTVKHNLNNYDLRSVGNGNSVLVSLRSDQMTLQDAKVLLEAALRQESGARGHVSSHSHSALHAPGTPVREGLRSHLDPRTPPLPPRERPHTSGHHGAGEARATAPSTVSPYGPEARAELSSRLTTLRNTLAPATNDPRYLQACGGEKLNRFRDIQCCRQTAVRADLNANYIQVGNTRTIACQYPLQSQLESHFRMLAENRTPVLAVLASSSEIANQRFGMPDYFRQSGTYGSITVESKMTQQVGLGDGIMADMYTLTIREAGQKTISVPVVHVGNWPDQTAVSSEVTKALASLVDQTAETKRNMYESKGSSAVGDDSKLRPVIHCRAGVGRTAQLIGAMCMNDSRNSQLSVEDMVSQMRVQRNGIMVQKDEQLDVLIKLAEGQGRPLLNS

Turning to `O=C(O)c1cc(/C=N/OCCCCCCCCCCO/N=C/c2ccc(OCc3ccccc3)cc2)ccc1O`, half-maximal inhibition (IC50) required 2400 nM.

By IC50 is commonly meant the concentration needed to halve the response being measured.
